Experimental data: PubChem BioAssay (NCI)
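Each compound was tested at five concentrations against cells in 96-well plates for 48 hours. The concentration for full growth arrest is given as TGI.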

Columns and labels:
Test in all cases: NCI tumour cell line growth inhibition, 48 h
HT29 colon = system: HT29 colon
T-47D breast = system: T-47D breast
M14 melanoma = system: M14 melanoma
LOX IMVI melanoma = system: LOX IMVI melanoma
NCI/ADR-RES ovarian = system: NCI/ADR-RES ovarian
NCI-H460 lung = system: NCI-H460 lung
RXF 393 renal = system: RXF 393 renal
SK-MEL-5 melanoma = system: SK-MEL-5 melanoma
MDA-N = system: MDA-N
OVCAR-5 ovarian = system: OVCAR-5 ovarian
UO-31 renal = system: UO-31 renal
CAKI-1 renal = system: CAKI-1 renal
SNB-19 CNS = system: SNB-19 CNS
MOLT-4 leukemia = system: MOLT-4 leukemia
A549 NSCLC = system: A549 NSCLC
A498 renal = system: A498 renal
K-562 leukemia = system: K-562 leukemia
NCI-H522 lung = system: NCI-H522 lung
SN12C renal = system: SN12C renal
U251 CNS = system: U251 CNS
NCI-H226 lung = system: NCI-H226 lung
SW-620 colon = system: SW-620 colon
DU-145 prostate = system: DU-145 prostate
ACHN renal = system: ACHN renal
HOP-92 NSCLC = system: HOP-92 NSCLC
SF-539 CNS = system: SF-539 CNS
786-0 renal = system: 786-0 renal
HCT-15 colon = system: HCT-15 colon
SNB-75 CNS = system: SNB-75 CNS
SF-295 CNS = system: SF-295 CNS
KM12 colon = system: KM12 colon
HCT-116 colon = system: HCT-116 colon
TK-10 renal = system: TK-10 renal
BT-549 breast = system: BT-549 breast
MALME-3M melanoma = system: MALME-3M melanoma
UACC-257 melanoma = system: UACC-257 melanoma
OVCAR-3 ovarian = system: OVCAR-3 ovarian
SK-MEL-2 melanoma = system: SK-MEL-2 melanoma
COLO 205 colon = system: COLO 205 colon
MDA-MB-435 = system: MDA-MB-435
SK-MEL-28 melanoma = system: SK-MEL-28 melanoma
CCRF-CEM leukemia = system: CCRF-CEM leukemia
HS 578T breast = system: HS 578T breast
SF-268 CNS = system: SF-268 CNS
SK-OV-3 ovarian = system: SK-OV-3 ovarian
IGROV1 ovarian = system: IGROV1 ovarian
UACC-62 melanoma = system: UACC-62 melanoma
MCF7 breast = system: MCF7 breast
NCI-H23 lung = system: NCI-H23 lung
HL-60(TB) leukemia = system: HL-60(TB) leukemia
OVCAR-8 ovarian = system: OVCAR-8 ovarian
EKVX NSCLC = system: EKVX NSCLC
MDA-MB-231 breast = system: MDA-MB-231 breast
OVCAR-4 ovarian = system: OVCAR-4 ovarian
HCC-2998 colon = system: HCC-2998 colon
PC-3 prostate = system: PC-3 prostate
HOP-62 NSCLC = system: HOP-62 NSCLC
RPMI-8226 leukemia = system: RPMI-8226 leukemia
SR leukemia = system: SR leukemia

Measured: TGI

CCC1(CC)CC(=NNS(=O)(=O)c2ccc(C)cc2)C1
> 100 µM: HT29 colon | T-47D breast | M14 melanoma | LOX IMVI melanoma | NCI/ADR-RES ovarian | NCI-H460 lung | RXF 393 renal | SK-MEL-5 melanoma | MDA-N | OVCAR-5 ovarian | UO-31 renal | CAKI-1 renal | SNB-19 CNS | MOLT-4 leukemia | A549 NSCLC | A498 renal | K-562 leukemia | NCI-H522 lung | SN12C renal | U251 CNS | NCI-H226 lung | SW-620 colon | DU-145 prostate | ACHN renal | HOP-92 NSCLC | SF-539 CNS | 786-0 renal | HCT-15 colon | SNB-75 CNS | SF-295 CNS | KM12 colon | HCT-116 colon | TK-10 renal | BT-549 breast | MALME-3M melanoma | UACC-257 melanoma | OVCAR-3 ovarian | SK-MEL-2 melanoma | COLO 205 colon | MDA-MB-435 | SK-MEL-28 melanoma | CCRF-CEM leukemia | HS 578T breast | SF-268 CNS | SK-OV-3 ovarian | IGROV1 ovarian | UACC-62 melanoma | MCF7 breast | NCI-H23 lung | HL-60(TB) leukemia | OVCAR-8 ovarian | EKVX NSCLC | MDA-MB-231 breast | OVCAR-4 ovarian | HCC-2998 colon | PC-3 prostate

C=CCOC1OC(CO[Si](C)(C)C(C)(C)C)C(OCc2ccccc2)C(OCc2ccccc2)C1OCc1ccccc1 (stereo not given)
60.3 µM: SNB-19 CNS
> 100 µM: HT29 colon | T-47D breast | M14 melanoma | LOX IMVI melanoma | NCI/ADR-RES ovarian | NCI-H460 lung | SK-MEL-5 melanoma | MDA-N | OVCAR-5 ovarian | UO-31 renal | CAKI-1 renal | MOLT-4 leukemia | A549 NSCLC | K-562 leukemia | NCI-H522 lung | RPMI-8226 leukemia | SN12C renal | U251 CNS | NCI-H226 lung | SR leukemia | SW-620 colon | DU-145 prostate | ACHN renal | HOP-92 NSCLC | HCT-15 colon | KM12 colon | TK-10 renal | BT-549 breast | MALME-3M melanoma | UACC-257 melanoma | OVCAR-3 ovarian | SK-MEL-2 melanoma | COLO 205 colon | MDA-MB-435 | SK-MEL-28 melanoma | CCRF-CEM leukemia | HS 578T breast | SF-268 CNS | SK-OV-3 ovarian | IGROV1 ovarian | UACC-62 melanoma | MCF7 breast | NCI-H23 lung | HL-60(TB) leukemia | OVCAR-8 ovarian | EKVX NSCLC | OVCAR-4 ovarian | PC-3 prostate
65.9 µM: HCT-116 colon
54.9 µM: SF-295 CNS
22.3 µM: 786-0 renal
48.3 µM: HOP-62 NSCLC
51.1 µM: SNB-75 CNS
